Measurements reported in ChEMBL document CHEMBL3885881, “DrugMatrix”.

Species on record: Rattus norvegicus
Assay: DrugMatrix - Regimen: Daily Repeat
Type: toxicity, organism-based, Sprague-Dawley
Set-up: regimen Daily Repeat, gender Male, age 6-8 weeks
Conditions: in vivo, po, route oral GAVAGE, […]; for ABSOLUTE BASOPHIL / ABSOLUTE EOSINOPHIL / ABSOLUTE LYMPHOCYTE / ABSOLUTE MONOCYTE / ABSOLUTE SEGMENTED NEUTROPHIL / BASOPHIL / EOSINOPHIL / ERYTHROCYTE COUNT / HEMATOCRIT / HEMOGLOBIN / LEUKOCYTE COUNT / LYMPHOCYTE / MEAN CORPUSCULAR HEMOGLOBIN / MEAN CORPUSCULAR HEMOGLOBIN CONCENTRATION / MEAN CORPUSCULAR VOLUME / MONOCYTE / NEUTROPHIL / NUCLEATED RED BLOOD CELLS / PLATELET COUNT: tissue Blood; for ALANINE AMINOTRANSFERASE / ALBUMIN / ALKALINE PHOSPHATASE / ASPARTATE AMINOTRANSFERASE / BLOOD UREA NITROGEN / CARBON DIOXIDE / CHLORIDE / CHOLESTEROL / CREATINE PHOSPHOKINASE / CREATININE / GLUCOSE / LACTATE DEHYDROGENASE / LIPASE / PHOSPHORUS / POTASSIUM / SODIUM / TOTAL BILIRUBIN / TOTAL PROTEIN / URIC ACID: tissue Plasma
[1] = 0 mg/kg, 72 h, dose level Control, time 3 day
[2] = 0 mg/kg, dose level Control, time 7 day
[3] = 400 mg/kg, 72 h, dose level Low, time 3 day

`ClC(Cl)(Cl)Cl` [CARBON TETRACHLORIDE] was tested, and the “ABSOLUTE BASOPHIL” value [1] was 0 CELLS/uL, the “ABSOLUTE EOSINOPHIL” value [1] was 47.5 CELLS/uL and the “ABSOLUTE LYMPHOCYTE” value [1] was 9600.67 CELLS/uL. For the same compound, the “ABSOLUTE MONOCYTE” value [1] was 195.5 CELLS/uL, the “ABSOLUTE SEGMENTED NEUTROPHIL” value [1] was 839.67 CELLS/uL and the BASOPHIL [1] was 0%. The EOSINOPHIL [1] was 0.5%, the “ERYTHROCYTE COUNT” value [1] was 5.26 x10E6/uL and the HEMATOCRIT [1] was 34.48%. For the same compound, the HEMOGLOBIN [1] was 12.77 G/DL, the “LEUKOCYTE COUNT” value [1] was 10.68 x10E3/uL and the LYMPHOCYTE [1] was 89.67%. For the same compound, the “MEAN CORPUSCULAR HEMOGLOBIN” value [1] was 24.3 pg, the “MEAN CORPUSCULAR HEMOGLOBIN CONCENTRATION” value [1] was 37.05 G/DL and the “MEAN CORPUSCULAR VOLUME” value [1] was 65.62 fL. For the same compound, the MONOCYTE [1] was 1.83%, the NEUTROPHIL [1] was 8% and the “NUCLEATED RED BLOOD CELLS” value [1] was 0.17 /100WBC. For the same compound, the “PLATELET COUNT” value [1] was 1038.67 x10E3/uL, the “ALANINE AMINOTRANSFERASE” value [1] was 65.17 u/L and the ALBUMIN [1] was 4.2 G/DL. The “ALKALINE PHOSPHATASE” value [1] was 377.5 u/L, the “ASPARTATE AMINOTRANSFERASE” value [1] was 90.5 u/L and the “BLOOD UREA NITROGEN” value [1] was 13.5 mg/dL. For the same compound, the “CARBON DIOXIDE” value [1] was 31.17 mmol/L, the CHLORIDE [1] was 98.33 MEQ/L and the CHOLESTEROL [1] was 66.33 mg/dL. The “CREATINE PHOSPHOKINASE” value [1] was 478.83 u/L, the CREATININE [1] was 0.19 mg/dL and the GLUCOSE [1] was 155.17 mg/dL. The “LACTATE DEHYDROGENASE” value [1] was 107.5 u/L, the LIPASE [1] was 10.33 u/L and the PHOSPHORUS [1] was 9.25 mg/dL. The POTASSIUM [1] was 5.43 MEQ/L, the SODIUM [1] was 142.05 MEQ/L and the “TOTAL BILIRUBIN” value [1] was 0.12 mg/dL. For the same compound, the “TOTAL PROTEIN” value [1] was 5.95 G/DL, the “URIC ACID” value [1] was 0.62 mg/dL and the “ABSOLUTE BASOPHIL” value [2] was 0 CELLS/uL. The “ABSOLUTE EOSINOPHIL” value [2] was 43.5 CELLS/uL, the “ABSOLUTE LYMPHOCYTE” value [2] was 9369.83 CELLS/uL and the “ABSOLUTE MONOCYTE” value [2] was 196.17 CELLS/uL. For the same compound, the “ABSOLUTE SEGMENTED NEUTROPHIL” value [2] was 723.83 CELLS/uL, the BASOPHIL [2] was 0% and the EOSINOPHIL [2] was 0.5%. For the same compound, the “ERYTHROCYTE COUNT” value [2] was 5.09 x10E6/uL, the HEMATOCRIT [2] was 32.42% and the HEMOGLOBIN [2] was 13.1 G/DL. For the same compound, the “LEUKOCYTE COUNT” value [2] was 10.33 x10E3/uL, the LYMPHOCYTE [2] was 90.83% and the “MEAN CORPUSCULAR HEMOGLOBIN” value [2] was 25.75 pg. For the same compound, the “MEAN CORPUSCULAR HEMOGLOBIN CONCENTRATION” value [2] was 40.43 G/DL, the “MEAN CORPUSCULAR VOLUME” value [2] was 63.62 fL and the MONOCYTE [2] was 1.67%. The NEUTROPHIL [2] was 7%, the “NUCLEATED RED BLOOD CELLS” value [2] was 0 /100WBC and the “PLATELET COUNT” value [2] was 1106.5 x10E3/uL. For the same compound, the “ALANINE AMINOTRANSFERASE” value [2] was 48.67 u/L, the ALBUMIN [2] was 4.13 G/DL and the “ALKALINE PHOSPHATASE” value [2] was 275.17 u/L. For the same compound, the “ASPARTATE AMINOTRANSFERASE” value [2] was 73.17 u/L, the “BLOOD UREA NITROGEN” value [2] was 13.17 mg/dL and the “CARBON DIOXIDE” value [2] was 27.5 mmol/L. For the same compound, the CHLORIDE [2] was 99.67 MEQ/L, the CHOLESTEROL [2] was 60.83 mg/dL and the “CREATINE PHOSPHOKINASE” value [2] was 213 u/L. The CREATININE [2] was 0.2 mg/dL, the GLUCOSE [2] was 166.67 mg/dL and the “LACTATE DEHYDROGENASE” value [2] was 94.5 u/L. The LIPASE [2] was 10.5 u/L, the PHOSPHORUS [2] was 9.98 mg/dL and the POTASSIUM [2] was 5.3 MEQ/L. The SODIUM [2] was 140.77 MEQ/L, the “TOTAL BILIRUBIN” value [2] was 0.15 mg/dL and the “TOTAL PROTEIN” value [2] was 5.88 G/DL. The “URIC ACID” value [2] was 0.82 mg/dL, the “ABSOLUTE BASOPHIL” value [3] was 0 CELLS/uL and the “ABSOLUTE EOSINOPHIL” value [3] was 68.67 CELLS/uL. The “ABSOLUTE LYMPHOCYTE” value [3] was 9955.17 CELLS/uL, the “ABSOLUTE MONOCYTE” value [3] was 295.83 CELLS/uL and the “ABSOLUTE SEGMENTED NEUTROPHIL” value [3] was 1063.67 CELLS/uL. The BASOPHIL [3] was 0%, the EOSINOPHIL [3] was 0.67% and the “ERYTHROCYTE COUNT” value [3] was 5.78 x10E6/uL. The HEMATOCRIT [3] was 36.52%, the HEMOGLOBIN [3] was 13.38 G/DL and the “LEUKOCYTE COUNT” value [3] was 11.38 x10E3/uL. The LYMPHOCYTE [3] was 87.5%, the “MEAN CORPUSCULAR HEMOGLOBIN” value [3] was 23.22 pg and the “MEAN CORPUSCULAR HEMOGLOBIN CONCENTRATION” value [3] was 36.7 G/DL. The “MEAN CORPUSCULAR VOLUME” value [3] was 63.22 fL, the MONOCYTE [3] was 2.67% and the NEUTROPHIL [3] was 9.17%. The “NUCLEATED RED BLOOD CELLS” value [3] was 0 /100WBC, the “PLATELET COUNT” value [3] was 836.5 x10E3/uL and the “ALANINE AMINOTRANSFERASE” value [3] was 112.17 u/L. For the same compound, the ALBUMIN [3] was 3.92 G/DL, the “ALKALINE PHOSPHATASE” value [3] was 474.67 u/L and the “ASPARTATE AMINOTRANSFERASE” value [3] was 154.33 u/L. For the same compound, the “BLOOD UREA NITROGEN” value [3] was 15.5 mg/dL, the “CARBON DIOXIDE” value [3] was 31.67 mmol/L and the CHLORIDE [3] was 101 MEQ/L. For the same compound, the CHOLESTEROL [3] was 43.17 mg/dL, the “CREATINE PHOSPHOKINASE” value [3] was 313.5 u/L and the CREATININE [3] was 0.21 mg/dL. The GLUCOSE [3] was 143.17 mg/dL, the “LACTATE DEHYDROGENASE” value [3] was 105 u/L and the LIPASE [3] was 12 u/L. For the same compound, the PHOSPHORUS [3] was 9.75 mg/dL, the POTASSIUM [3] was 5.51 MEQ/L and the SODIUM [3] was 145.37 MEQ/L. For the same compound, the “TOTAL BILIRUBIN” value [3] was 0.1 mg/dL, the “TOTAL PROTEIN” value [3] was 5.6 G/DL and the “URIC ACID” value [3] was 0.52 mg/dL.
